Values quoted from earlier work as cited in patent US8314084B2, “Device and methods for sequential, regional delivery of multiple cytotoxic agents and directed assembly of wound repair tissues” (priority 2002, dated 2012).

Conditions: given intravenously to dogs

For `N.N.[Cl][Pt][Cl]` [cisplatin, Cis-diamminedichloroplatinum H], the “usual maximum dose-limiting schedule” value is listed as 70 mg/m^2.
